Reference: BindingDB's records for doi:10.1016/j.bmc.2017.06.018 (Chungnam National University, 2017)
pIC50: −log10 of the molar value.

Experiment: Inhibition of IL-5 in mouse Y16 cells assessed as reduction in cell proliferation after 48 hrs by WST-1 assay

Compound	pIC50
CCCC(=O)N(CCO)Cc1coc2cccc(OCC3CCCCC3)c2c1=O	4.60
O=C(NCc1ccccc1)N(CCO)Cc1coc2cccc(OCC3CCCCC3)c2c1=O	4.74
CCCNC(=O)N(CCO)Cc1coc2cccc(OCC3CCCCC3)c2c1=O	< 4.52
CC(C)(C)CCOc1cccc2occ(CN(CCO)C(=O)Nc3ccccc3)c(=O)c12	< 4.52
CCNC(=O)N(CCO)Cc1coc2cccc(OCC3CCCCC3)c2c1=O	< 4.52
O=C(Nc1ccc(Cl)cc1)N(CCO)Cc1coc2cccc(OCC3CCCCC3)c2c1=O	< 4.52
O=C(Cc1ccccc1)N(CCO)Cc1coc2cccc(OCC3CCCCC3)c2c1=O	5.00
CC(C)NC(=O)N(CCO)Cc1coc2cccc(OCC3CCCCC3)c2c1=O	< 4.52
CC(C)(C)CCOc1cccc2occ(CN(CCO)C(=O)Cc3ccccc3)c(=O)c12	< 4.52
O=C(NC1CCCCC1)N(CCO)Cc1coc2cccc(OCC3CCCCC3)c2c1=O	4.77
CC(C)CCOc1cccc2occ(CN(CCO)C(=O)Cc3ccccc3)c(=O)c12	< 4.52
O=C(NCCCc1ccccc1)N(CCO)Cc1coc2cccc(OCC3CCCCC3)c2c1=O	4.82
CCOC(=O)N(CCO)Cc1coc2cccc(OCC3CCCCC3)c2c1=O	4.69
O=C(Oc1ccccc1)N(CCO)Cc1coc2cccc(OCC3CCCCC3)c2c1=O	4.60

The next lines start with the values.

pIC50	Compound
4.75	COc1ccc(CC(=O)N(CCO)Cc2coc3cccc(OCC4CCCCC4)c3c2=O)cc1
< 4.52	CC(C)(C)CCOc1cccc2occ(CN(CCO)C(=O)Oc3ccccc3)c(=O)c12
4.74	COc1ccc(NC(=O)N(CCO)Cc2coc3cccc(OCC4CCCCC4)c3c2=O)cc1
< 4.52	CC(C)CCOc1cccc2occ(CN(CCO)C(=O)Oc3ccccc3)c(=O)c12
4.60	CCC(=O)N(CCO)Cc1coc2cccc(OCC3CCCCC3)c2c1=O
< 4.52	CC(C)CCOc1cccc2occ(CN(CCO)C(=O)Nc3ccccc3)c(=O)c12
4.97	O=c1c(-c2ccc(O[C@H]3O[C@@H](CO)[C@H](O)[C@@H](O)[C@@H]3O)cc2)coc2cc(O)cc(O)c12
4.77	O=C(Nc1ccccc1)N(CCO)Cc1coc2cccc(OCC3CCCCC3)c2c1=O
